Structures are written as SMILES.

These results are taken from ChEMBL document CHEMBL4000204, “Improving potency and metabolic stability by introducing an alkenyl linker to pyridine-based histone deacetylase inhibitors for orally available RUNX3 modulators” (Eur J Med Chem, 2017).

Data set [1] can be described thus: in vitro. The settings on record: mouse, liver microsomes.
The nature of data set [2]: in vitro. To be noted: mouse, liver microsomes. The source holds these as a separate data set.

In the case of `O=C1CC2(CCCC2)CC(=O)N1CCCCN1CCN(c2ncccn2)CC1` [BUSPIRONE], the amount remaining at 0.5 h, 1000 µM in the data set “in vitro [1]” came to 0.29%; in “in vitro [2]”, 99.1%.
Turning to `O=C(/C=C/c1cccn(CCCc2ccc3ccccc3c2)c1=O)NO`, the fraction remaining at 0.5 h, 1000 µM in the data set “in vitro [1]” amounted to 35.5%; in the data set “in vitro [2]”, 90.3%.
